Measured values: paper PMC8126888 (RSC Medicinal Chemistry, 2020)
Like-named read-outs stand apart in the source and are kept apart here.

Experiments:
[1] = in vitro; conditions: human, microsomes
[2] = physchem
[3] = in vitro; conditions: mouse, microsomes
[4] = test system: Leishmania infantum MHOM/MA(BE)/67/ITMAP263 intracellular amastigotes; test: microbe, parasite or virus in culture; conditions: Macrophage, in Mus musculus
[5] = test system: primary peritoneal mouse macrophages (PMM); test: cells; conditions: Macrophage
[6] = test system: Leishmania infantum MHOM/MA(BE)/67/ITMAP263 intracellular amastigotes; conditions: intracellular amastigotes in PMM
[7] = in vitro; conditions: human
[8] = test system: Trypanosoma cruzi, Tulahuen CL2, beta-galactosidase strain; test: microbe, parasite or virus in culture; conditions: MRC5, read-out: T. cruzi Tulahuen C4 (LacZ) IC50
[9] = pH 7.4, Microsome Clint,u Human, Table 2, intrinsic in vitro clearance, liver microsomes
[10] = HPLC, Ascentis Express RP Amide column, pH 7.4, elog D, HPLC measured log D, pH 7.4
[11] = pH 7.4, Microsome Clint,u Mouse, Table 2, intrinsic in vitro clearance, liver microsomes
[12] = read-out: L. inf. pIC50, intracellular amastigotes in PMM (converted), geometric mean of a minimum of two experiments ± standard error
[13] = read-out: PMM pIC50 (converted)
[14] = pH 7.4, Microsome Clint Human, intrinsic in vitro clearance, liver microsomes
[15] = pH 7.4, elog D, HPLC measured log D, pH 7.4
[16] = pH 7.4, Microsome Clint Mouse, intrinsic in vitro clearance, liver microsomes
[17] = pH 7.4, HLM CLint, human liver microsomes
[18] = HPLC, Ascentis Express RP Amide column, pH 7.4, eLogD, experimental
[19] = pH 7.4, MLM CLint, mouse liver microsomes
[20] = read-out: L. Inf. pIC50, from L. infantum intracellular amastigote IC50 (converted)
[21] = read-out: L. infantum MHOM/MA(BE)/67/ITMAP263 intracellular amastigotes IC50, intracellular amastigotes

Structure (SMILES) | chromatographic logD [2, 10] | IC50 [4, 12] | IC50 [5, 13] | microsomal CLint at 0.5 h, 0.5 µM [3, 16] | further results
COc1ccc(C(=O)N2CCOCC2)cc1S(=O)(=O)N(Cc1ccc(F)cc1)CC(C)C [Compound 44] | 3.6 | 6.92 µM | > 64.6 µM | – | microsomal CLint at 0.5 h, 0.5 µM [1, 9]: 1050 µL/min/mg; microsomal CLint at 0.5 h, 0.5 µM [3, 11]: 1400 µL/min/mg
COc1ccc(C#N)cc1S(=O)(=O)N(Cc1ccc(F)cc1)C1CCOCC1 [Compound 43] | 3.4 | > 64.6 µM | > 64.6 µM | – | microsomal CLint at 0.5 μM [1, 9]: 194 µL/min/mg; microsomal CLint at 0.5 μM [3, 11]: 253 µL/min/mg; potency against L. inf. in words [6]: inactive
COCCN(Cc1ccc(F)cc1)S(=O)(=O)c1cc(C(=O)N2CCOCC2)ccc1OC [Compound 42] | 2.9 | 43.7 ± 0.601 µM | > 64.6 µM | – | microsomal CLint at 0.5 μM [1, 9]: 28 µL/min/mg; microsomal CLint at 0.5 μM [3, 11]: 60 µL/min/mg
Cn1cccc(S(=O)(=O)N(Cc2ccc(F)cc2)Cc2ccc(F)cc2)c1=O [Compound 31] | – | 20.9 µM | > 64 µM | 2450 µL/min/mg | microsomal CLint at 0.5 h, 0.5 µM [1, 14]: 676 µL/min/mg; chromatographic logD [2, 15]: 3.7
COc1ccc(C(=O)O)cc1S(=O)(=O)N(Cc1ccccc1)Cc1ccccc1 [Compound 20] | 2.5 | 57.5 µM | > 64.6 µM | 94 µL/min/mg | microsomal CLint at 0.5 μM [1, 14]: < 23 µL/min/mg
O=S1(=O)c2cc(F)ccc2OC(c2ccc(F)cc2)CN1Cc1ccccc1 (centres unmarked) [DNDI0003371160] | – | – | – | – | microsomal CLint at 0.5 μM [1, 17]: 398 µL/min/mg; CC50 at 3 days [7]: > 64 µM; chromatographic logD [2, 18]: 4.9; microsomal CLint at 0.5 μM [3, 19]: 323 µL/min/mg; IC50 [4, 20]: 20.4 µM; IC50 [4, 21]: 20.2 µM; IC50 ([5]; read-out: PMM IC50): > 64 µM; IC50 [8]: 7.97 µM
N#Cc1ccc(O)c(S(=O)(=O)N(Cc2ccc(F)cc2)Cc2ccc(F)cc2)c1 [Compound 16] | 3.7 | 30.9 µM | 45.7 µM | 1100 µL/min/mg | microsomal CLint at 0.5 h, 0.5 µM [1, 14]: 27.4 µL/min/mg
COc1ccc(OC)c(S(=O)(=O)N(Cc2ccc(F)cc2)Cc2cnc(OC)nc2OC)c1 [Compound 34] | 3.8 | 53.7 µM | > 64.6 µM | – | microsomal CLint at 0.5 h, 0.5 µM [1, 9]: 498 µL/min/mg; microsomal CLint at 0.5 h, 0.5 µM [3, 11]: 3150 µL/min/mg
O=S(=O)(c1ccccc1OC(F)(F)F)N(Cc1ccccc1)Cc1ccccc1 [Compound 15] | 5.1 | 1.1 µM | > 64.6 µM | – | microsomal CLint at 0.5 h, 0.5 µM [1, 14]: 92.9 µL/min/mg; microsomal CLint at 0.5 μM [3, 16]: 689 µL/min/mg
COc1ncccc1S(=O)(=O)N(Cc1ccccc1)Cc1ccccc1 [Compound 30] | – | 0.646 µM | > 64 µM | 2570 µL/min/mg | microsomal CLint at 0.5 μM [1, 14]: 849 µL/min/mg; chromatographic logD [2, 15]: 4.3
COc1ccc(S(=O)(=O)N(Cc2ccccc2)Cc2ccccc2)cc1 [Compound 11] | 4.7 | 45.7 µM | > 64.6 µM | – | microsomal CLint at 0.5 μM [1, 14]: 184 µL/min/mg; microsomal CLint at 0.5 μM [3, 16]: 2410 µL/min/mg
COc1ncc(Br)cc1S(=O)(=O)N(Cc1ccc(F)cc1)Cc1ccc(F)cc1 [DNDI0003369122] | – | – | – | – | microsomal CLint at 0.5 μM [1, 17]: 95 µL/min/mg; CC50 at 3 days [7]: > 64 µM; chromatographic logD [2, 18]: 5.2; microsomal CLint at 0.5 μM [3, 19]: 469 µL/min/mg; IC50 [4, 20]: 14.8 µM; IC50 [4, 21]: 14.8 µM; IC50 ([5]; read-out: PMM IC50): > 64 µM; IC50 [8]: 7.43 µM
COc1ccc(OC)c(S(=O)(=O)N(Cc2ccccc2)C2CCCNC2)c1 (centres unmarked) [DNDI0003366131] | – | – | – | – | microsomal CLint at 0.5 μM [1, 17]: 347 µL/min/mg; CC50 at 3 days [7]: 58.5 µM; chromatographic logD [2, 18]: 3.2; microsomal CLint at 0.5 μM [3, 19]: 96 µL/min/mg; IC50 [4, 20]: 29.5 µM; IC50 [4, 21]: 29.5 µM; IC50 ([5]; read-out: PMM IC50): > 64 µM; IC50 [8]: 31.6 µM
COc1ccc(C(N)=O)cc1S(=O)(=O)N(Cc1ccccc1)Cc1ccccc1 [DNDI0003366135] | – | – | – | – | microsomal CLint at 0.5 μM [1, 17]: 108 µL/min/mg; CC50 at 3 days [7]: 43.2 µM; microsomal CLint at 0.5 μM [3, 19]: 1670 µL/min/mg; IC50 [4, 20]: 7.41 µM; IC50 [4, 21]: 7.39 µM; IC50 ([5]; read-out: PMM IC50): > 64 µM; IC50 [8]: > 64 µM
COc1ccc(N2CCOCC2)cc1S(=O)(=O)N(Cc1ccc(F)cc1)Cc1ccc(F)cc1 [Compound 25] | 4.2 | 0.324 µM | > 64.6 µM | 1400 µL/min/mg | microsomal CLint at 0.5 h, 0.5 µM [1, 14]: 421 µL/min/mg
COc1ccc(C#N)cc1S(=O)(=O)N(Cc1ccc(C(F)(F)F)nc1)Cc1ccc(C(F)(F)F)nc1 [Compound 50] | 3.8 | 38.9 µM | > 64.6 µM | – | microsomal CLint at 0.5 μM [1, 9]: < 23 µL/min/mg; microsomal CLint at 0.5 h, 0.5 µM [3, 11]: 95 µL/min/mg; potency against L. inf. in words [6]: inactive
COc1ccc(OC)c(S(=O)(=O)N(Cc2ccccc2)Cc2ccccc2)c1 [Compound 9] | 4.6 | 0.372 µM | > 64.6 µM | – | microsomal CLint at 0.5 μM [1, 14]: 242 µL/min/mg; microsomal CLint at 0.5 μM [3, 16]: 1300 µL/min/mg
CS(=O)(=O)c1ccccc1S(=O)(=O)N(Cc1ccccc1)Cc1ccccc1 [Compound 14] | 4 | 32.4 µM | > 64.6 µM | 2880 µL/min/mg | microsomal CLint at 0.5 h, 0.5 µM [1, 14]: 417 µL/min/mg
COc1ccc(OC)c(S(=O)(=O)N(Cc2ccc(F)cc2)c2ccc(F)cc2)c1 [Compound 33] | 4.3 | 11.5 µM | > 64.6 µM | – | microsomal CLint at 0.5 h, 0.5 µM [1, 9]: 482 µL/min/mg; microsomal CLint at 0.5 h, 0.5 µM [3, 11]: 1560 µL/min/mg
COc1ccc(C(=O)N2CCOCC2)cc1S(=O)(=O)N(Cc1ccccc1)Cc1ccccc1 [Compound 22] | 3.8 | 0.457 µM | 45.7 µM | 2020 µL/min/mg | microsomal CLint at 0.5 μM [1, 14]: 810 µL/min/mg
COCCN(Cc1ccc(F)cc1)S(=O)(=O)c1cc(C#N)ccc1OC [Compound 41] | 3.4 | 8.91 µM | > 64.6 µM | – | microsomal CLint at 0.5 μM [1, 9]: < 23 µL/min/mg; microsomal CLint at 0.5 h, 0.5 µM [3, 11]: 585 µL/min/mg
CCN(Cc1ccccc1)S(=O)(=O)c1cc(OC)ccc1OC [Compound 38] | 3.8 | 2.09 µM | > 64.6 µM | – | microsomal CLint at 0.5 μM [1, 9]: 534 µL/min/mg; chromatographic logD [2, 15]: 3.5; microsomal CLint at 0.5 μM [3, 11]: 3500 µL/min/mg; L. inf. pIC50 ([6]; geometric mean of a minimum of two experiments ± standard error): 5.60 ± 0.03
COc1ccc(OC)c(S(=O)(=O)N(Cc2ccc(F)cc2)Cc2nc(C)no2)c1 [Compound 36] | 3.5 | 7.76 µM | > 64.6 µM | – | microsomal CLint at 0.5 μM [1, 9]: 350 µL/min/mg; microsomal CLint at 0.5 h, 0.5 µM [3, 11]: 3050 µL/min/mg
COc1ccc(C(N)=O)cc1S(=O)(=O)N(Cc1ccccc1)Cc1ccccc1 [Compound 21] | 3.6 | 7.41 µM | > 64.6 µM | – | microsomal CLint at 0.5 μM [1, 14]: 108 µL/min/mg; microsomal CLint at 0.5 μM [3, 16]: 1670 µL/min/mg
COc1ccc([S+](C)[O-])cc1S(=O)(=O)N(Cc1ccccc1)Cc1ccccc1 (centres unmarked) [Compound 28] | 3.5 | 0.589 µM | > 64.6 µM | 929 µL/min/mg | microsomal CLint at 0.5 h, 0.5 µM [1, 14]: 233 µL/min/mg
COc1ccc(OC)c(S(=O)(=O)N(Cc2ccc(F)cc2)Cc2ccnn2C)c1 [Compound 35] | 3.5 | 5.25 µM | 45.7 µM | – | microsomal CLint at 0.5 h, 0.5 µM [1, 9]: 651 µL/min/mg; microsomal CLint at 0.5 μM [3, 11]: 5480 µL/min/mg
COCCN(Cc1ccc(F)cc1)S(=O)(=O)c1ccccc1OC(F)(F)F [Compound 40] | 3.8 | 8.32 µM | > 64.6 µM | – | microsomal CLint at 0.5 h, 0.5 µM [1, 9]: 194 µL/min/mg; microsomal CLint at 0.5 h, 0.5 µM [3, 11]: 222 µL/min/mg
COc1ccc(S(N)(=O)=O)cc1S(=O)(=O)N(Cc1ccccc1)Cc1ccccc1 [Compound 27] | 3.6 | 0.562 µM | > 64.6 µM | 884 µL/min/mg | microsomal CLint at 0.5 h, 0.5 µM [1, 14]: 94.1 µL/min/mg
